Literature values in patent US12121514B2, “Nonselective metabotropic glutamate receptor activators for treatment of attention deficit disorder and 22Q syndrome” (THE CHILDREN'S HOSPITAL OF PHILADELPHIA, priority 2015, dated 2024).

What was measured:
[1] = test system: group I and group II/III mGluRs; details: in vitro studies; cited from earlier work
[2] = test system: adenylate cyclase activity through group I, II and III mGluRs; details: cited from earlier work
pediatric ADHD subjects = details: cited from earlier work

Structure (SMILES) | stimulation of mGluRs [1] | adenylate cyclase activity through group I mGluRs [2] | adenylate cyclase activity through group II and III mGluRs [2] | ADHD symptoms compared to a placebo control (pediatric ADHD subjects)
O=C1CC[C@H](C(=O)N2CCCCC2)N1 [Fasoracetam, fasoracetam] | can stimulate both group I and group II/III mGluRs | may stimulate adenylate cyclase activity | may also inhibit adenylate cyclase activity | 
NC(=O)CN1CCCC1=O [piracetam] |  |  |  | increase ADHD symptoms
